Patent publication EP1282725B1, “METHODS OF MODULATING FUNCTIONS OF POLYPEPTIDE GalNAc TRANSFERASES AND OF SCREENING SUBSTANCES THEREFOR” (Glycozym ApS, priority 2000, dated 2001)

Experiments:
GalNAc-T2 [1] = experiment: Inhibition of GalNAc-T2 activities with Muc2 acceptor substrate; assay type: biochemical, human; details: for Activity in the presence of inhibitors: inhibitors 230 mM, Muc2 acceptor
Protocol: (§1) Products were quantified by scintillation counting after chromatography on Dowex-1, octadecyl silica cartridges (Bakerbond), or HPLC (PC3.2/3 or mRPC C2/C18 SC2.1/10 Pharmacia, Smart System). […] Glycopeptides were purified on Supelclean LC-18 columns (1 ml, Supelco), and the number of GalNAc residues incorporated evaluated by MALDI-TOF mass spectrometry. The enzyme sources used were semipurified as previously described by successive sequential ion-exchange chromatographies on Amberlite (IRA95, Sigma) or DEAE Sephacel (Pharmacia), S-Sepharose Fast Flow (Pharmacia), and Mini-S^TM (PC 3.2/3, Pharmacia) using the Smart System (Pharmacia) (28). Secreted GalNAc-T4 was obtained from a stably transfected CHO line ([…]) (8) grown in roller bottles in HAMS F12 supplemented with 10 % Fetal Bovine Serum. The experiments illustrated in Fig. 1 was performed with recombinant secreted GalNAc-T4 obtained from a stably transfected CHO line (8). Experiments illustrated in Figs. 2 and 3 were performed with secreted GalNAc-T4 expressed in High Five cells grown in serum-free medium (8). Structural analysis of glycopeptides were performed by a combination of PFPA (pentafluoropropionic acid) hydrolysis and MALDI-TOF mass spectrometry as previously described (40). Secreted GalNAc-T7 was obtained from infected High Five^TM cells grown in serum-free medium (Invitrogen) in upright roller bottles shaken 140 rpm in waterbaths at 27 °C. GalNAc-T7 was not purified by Mini-S as the yields from cationic chromatography were low due to its low pI (6.4). […] Galactosyl transferring activities of GalNAc-T1, -T2, and -T3, were assayed with a panel of acceptor peptides in standard reaction mixtures containing 100 μM UDP-Gal instead of UDP-GalNAc.

GalNAc-T4 [2] = experiment: Inhibition of the glycosylation dependent (GalNAc-glycopeptide) activity of GalNAc-T4, time-course MALDI-TOF; assay type: biochemical, human
Protocol: (§2) MALDI-TOF time-course in terminal reactions were performed in reactions of 25 µl containing 2.5 nmol acceptor (glyco)peptide, 40 nmol UDP-GalNAc, and 0.4 µg GalNAc-T4. Sampling of reactions (1 µl) were purified by nano-scale reversed-phase chromatography (Poros R3, PerSeptive Biosystem) and applied directly to the probe with matrix (41). The amount of GalNAc-transferase added was adjusted so that the reaction with the appropriate peptide was near completion in six hours. Reactions were incubated at 37°C in a shaker bath. At times 0, 2 hours, and 16 hours a 1 µl aliquot was taken and purified. Mass spectra were acquired on either Voyager-DE mass spectrometer equipped with delayed extraction (Perseptive Biosystem Inc.). The matrix used was 2,5-dihydroxybenzoic acid (10 mg/ml, Hewlett-Packard) dissolved in a 2:1 mixture of 0.1% trifluoroacetic acid in 30 % aqueous acetonitrile (Rathburn Ltd.).
Quantification of purified proteins was done by Coomassie stained SDS-PAGE and titration of immunoreactivity with the monoclonal antibody, UH6(4G2) (8). […] Wild-type GalNAc-T4 and mutant GalNAc-T4, GalNAc-T4^459H, were analysed with unglycosylated peptides (represented by PSGL-1) or GalNAc glycosylated glycopeptides (represented by GalNAc3TAP25V21) in reactions of 25 µl containing 2.5 nmol acceptor (glyco)peptide, 40 nmol UDP-GalNAc, and 0.4 µg GalNAc-T4. Time-course assays were motioned by MALDI-TOF. Sampling of reactions (1 µl) were purified by nano-scale reversed-phase chromatography (Poros R3, PerSeptive Biosystem) and applied directly to the probe with matrix. Evaluation of inhibition of the glycopeptide specificity of wild-type GalNAc-T4 with free sugars was performed to establish if the lectin domain recognized carbohydrate. […] Further, analysis was performed with 10 mM α-D-GalNAc-1-benzyl, αGlcNAc-benzyl, and fully occupied GalNAc-glycopeptide, GalNAc6TAP25, at 5 mM.

GalNAc-T3 = experiment: Inhibition of GalNAc-T3 activities with EA2 acceptor substrate; assay type: biochemical, human; details: for Activity in the presence of inhibitors: inhibitors 230 mM, EA2 acceptor
Protocol: as §1

GalNAc-T4 [3] = experiment: Direct binding to free GalNAc, conventional binding assays; design: species or system human
[4] = tested on: GalNAc-T4^459D or -T4^459H; experiment: Glycosylation independent activity of GalNAc-T4 wild-type and lectin mutant with naked peptides, MALDI-TOF; assay type: biochemical, human; details: naked peptides (PSGL-1); free sugars
Protocol: as §2
Quantification of purified proteins was done by Coomassie stained SDS-PAGE and titration of immunoreactivity with the monoclonal antibody, UH6(4G2) (8). […] Wild-type GalNAc-T4 and mutant GalNAc-T4, GalNAc-T4^459H, were analysed with unglycosylated peptides (represented by PSGL-1) or GalNAc glycosylated glycopeptides (represented by GalNAc3TAP25V21) in reactions of 25 µl containing 2.5 nmol acceptor (glyco)peptide, 40 nmol UDP-GalNAc, and 0.4 µg GalNAc-T4. […]

GalNAc-T2 [5] = experiment: Direct binding to free GalNAc, conventional binding assays; design: species or system human
GalNAc-T7 = experiment: Inhibition of GalNAc-T7 activity with GalNAc2-3EA2 substrate; assay type: biochemical, human; details: for inhibition of the activity of GalNAc-T7 with GalNAc2-3EA2: 5 mM concentrations; for Activity in the presence of inhibitors: inhibitors 5 mM, GalNAc2-3EA2 substrate, without inhibitor 6.8
Protocol: Standard reaction mixtures (50 µl final volume) contained 25 mM cocadylate (pH 7.4), 10 mM MnCl2, 0.25% Triton X-100, 200 µM UDP-[^14C]-GalNAc (2,000 cpm/nmol) (Amer-sham), 200-500 µM acceptor peptides. Products were quantified by scintillation counting after chromatography on Dowex-1, octadecyl silica cartridges (Bakerbond), or HPLC (PC3.2/3 or mRPC C2/C18 SC2.1/10 Pharmacia, Smart System). […] Glycopeptides were purified on Supelclean LC-18 columns (1 ml, Supelco), and the number of GalNAc residues incorporated evaluated by MALDI-TOF mass spectrometry. The enzyme sources used were semipurified as previously described by successive sequential ion-exchange chromatographies on Amberlite (IRA95, Sigma) or DEAE Sephacel (Pharmacia), S-Sepharose Fast Flow (Pharmacia), and Mini-S™ (PC 3.2/3, Pharmacia) using the Smart System (Pharmacia) (28). Secreted GalNAc-T4 was obtained from a stably transfected CHO line (CHO/GalNA-T4/21A) (8) grown in roller bottles in HAMS F12 supplemented with 10 % Fetal Bovine Serum. The experiments illustrated in Fig. 1 was performed with recombinant secreted GalNAc-T4 obtained from a stably transfected CHO line (8). Experiments illustrated in Figs. 2 and 3 were performed with secreted GalNAc-T4 expressed in High Five cells grown in serum-free medium (8). Structural analysis of glycopeptides were performed by a combination of PFPA (pentafluoropropionic acid) hydrolysis and MALDI-TOF mass spectrometry as previously described (40). Secreted GalNAc-T7 was obtained from infected High Five™ cells grown in serum-free medium (Invitrogen) in upright roller bottles shaken 140 rpm in waterbaths at 27 °C. GalNAc-T7 was not purified by Mini-S as the yields from cationic chromatography were low due to its low pI (6.4).
GalNAc-T7 activity was analysed with GalNAc glycosylated glycopeptides (represented by GalNAc2-3EA2 (7)) in reactions of 25 µl containing 2.5 nmol acceptor (glyco)peptide, 40 nmol UDP-GalNAc, and purified GalNAc-T7. […] Further, analysis was performed with 10 mM α-D-GalNAc-1-benzyl, αGlcNAc-benzyl, and fully occupied GalNAc-glycopeptide, GalNAc6TAP25, at 5 mM.

[6] = donor UDP-Gal, without inhibitor 90
[7] = donor UDP-GalNAc, without inhibitor 340
[8] = […] free sugars, GalNAc3TAP25V21 glycopeptide substrate
[9] = donor UDP-Gal, without inhibitor 6.3
[10] = donor UDP-GalNAc, without inhibitor 34

## C[C@@H]1OC(O)[C@@H](O)[C@H](O)[C@@H]1O (stereo partly shown) [Fuc]
GalNAc-T2 [1]; [6]
  Activity in the presence of inhibitors: 89 nmol/min/mL
GalNAc-T2 [1]; [7]
  Activity in the presence of inhibitors: 370 nmol/min/mL
GalNAc-T4 [2]; [8]
  inhibition of the glycosylation dependent specificity of GalNAc-T4: failed to show significant inhibition
GalNAc-T3; [9]
  Activity in the presence of inhibitors: 6.5 nmol/min/mL
GalNAc-T3; [10]
  Activity in the presence of inhibitors: 34 nmol/min/mL

## CC(=O)N[C@H]1C(O)O[C@H](CO)[C@H](O)[C@@H]1O (stereo partly shown) [GalNAc, N-acetylgalactosamine]
GalNAc-T4 [3]
  direct binding of GalNAc-T4 to free GalNAc: could not detect direct binding
[4]
  effect on the glycosylation independent activities of GalNAc-T4: no effect on the general catalytic function of the enzyme
GalNAc-T2 [1]; donor UDP-Gal
  inhibition of the galactosyltransferase activity with Muc2 substrate: selectively inhibited
GalNAc-T2 [1]; [6]
  Activity in the presence of inhibitors: 24 nmol/min/mL
GalNAc-T2 [1]; [7]
  Activity in the presence of inhibitors: 300 nmol/min/mL
GalNAc-T2 [5]
  direct binding of GalNAc-T2 to free GalNAc: could not detect direct binding
GalNAc-T4 [2]; 50 mM sugars (not shown)
  inhibition of the glycosylation dependent specificity of GalNAc-T4: approximately 50%
GalNAc-T3; donor UDP-Gal
  inhibition of the galactosyltransferase activity of GalNAc-T3: selectively inhibited
GalNAc-T3; [9]
  Activity in the presence of inhibitors: 2.5 nmol/min/mL
GalNAc-T3; [10]
  Activity in the presence of inhibitors: 35 nmol/min/mL

## OC[C@H]1OC(O)[C@H](O)[C@@H](O)[C@H]1O (stereo partly shown) [Gal]
GalNAc-T2 [1]; [6]
  Activity in the presence of inhibitors: 89 nmol/min/mL
GalNAc-T2 [1]; [7]
  Activity in the presence of inhibitors: 300 nmol/min/mL
GalNAc-T4 [2]; [8]
  inhibition of the glycosylation dependent specificity of GalNAc-T4: failed to show significant inhibition
GalNAc-T3; [9]
  Activity in the presence of inhibitors: 7.3 nmol/min/mL
GalNAc-T3; [10]
  Activity in the presence of inhibitors: 33 nmol/min/mL

## CC(=O)N[C@H]1[C@@H](OCc2ccccc2)O[C@H](CO)[C@H](O)[C@@H]1O[C@@H]1O[C@H](CO)[C@H](O)[C@H](O)[C@H]1O [Galβ1-3GaINAcα1-bz, Galβ1-3GalNAcα1-benzyl]
GalNAc-T7
  inhibition of the activity of GalNAc-T7 with GalNAc2-3EA2: significantly inhibited
  Activity in the presence of inhibitors: 4.5 nmol/min/mL
GalNAc-T4 [2]; concentration not given
  inhibition of GalNAc-T4 glycopeptide activity compared to GalNAc: neither Gal nor Galβ1-3GalNAcα1-benzyl produced significant inhibition

## CC(=O)N[C@H]1C(O)O[C@H](CO)[C@@H](O)[C@@H]1O (stereo partly shown) [GlcNAc]
GalNAc-T2 [1]; [6]
  Activity in the presence of inhibitors: 68 nmol/min/mL
GalNAc-T2 [1]; [7]
  Activity in the presence of inhibitors: 310 nmol/min/mL
GalNAc-T4 [2]; [8]
  inhibition of the glycosylation dependent specificity of GalNAc-T4: failed to show significant inhibition
GalNAc-T3; [9]
  Activity in the presence of inhibitors: 7 nmol/min/mL
GalNAc-T3; [10]
  Activity in the presence of inhibitors: 32 nmol/min/mL

## CC(=O)N[C@H]1[C@@H](OCc2ccccc2)O[C@H](CO)[C@H](O)[C@@H]1O [bz-αGalNAc, α-D-GalNAc-1-benzyl]
GalNAc-T7
  inhibition of the activity of GalNAc-T7 with GalNAc2-3EA2: significantly inhibited
  Activity in the presence of inhibitors: 5.4 nmol/min/mL

## OC[C@H]1O[C@H](OCc2ccccc2)[C@@H](O)[C@@H](O)[C@@H]1O [bz-αMan]
GalNAc-T7
  Activity in the presence of inhibitors: 6.7 nmol/min/mL

## OC[C@H]1O[C@@H](OCc2ccccc2)[C@H](O)[C@@H](O)[C@H]1O [bz-βGal]
GalNAc-T7
  inhibition of the activity of GalNAc-T7 with GalNAc2-3EA2: significantly inhibited
  Activity in the presence of inhibitors: 4.7 nmol/min/mL

## CC(=O)N[C@H]1[C@@H](OCc2ccccc2)O[C@H](CO)[C@@H](O)[C@@H]1O [αGlcNAc-benzyl]
GalNAc-T4 [2]; 10 mM benzyl glycoside
  inhibition of the glycosylation dependent specificity of GalNAc-T4: did not inhibit catalytic activity
